According to patent US10118954B2, “Apelin analogues” (University of Ulster, priority 2014, dated 2018):
Where no end group is shown, it is not given here.

Legend:
[1] = Degradation of apelin peptides by plasma from fasted normal NIH Swiss mice (rp-HPLC, MALDI-TOF MS); assay type: in vitro ADME
Experimental: Degradation of Apelin Peptides by Plasma from Fasted Normal NIH Swiss Mice […] The enzymatic reaction was stopped by adding 50 μl of 10% TFA (0.1% v/v; Sigma-Aldrich Ltd, (Poole, Dorset, UK) and frozen at -20° C. until separation. The terminated reaction products were then applied to an analytical Vydac C-8 column (4.6×150 mm; Phenomenex, Macclesfield, Cheshire, UK) for rp-HPLC analysis. The absorbance was monitored at 214 nm using a […] UV 2000 detector (Thermoquest Limited, Manchester, UK) and the traces were recorded by Thermo Electron ChromQuest data collection software (version 4). HPLC peak fractions were collected manually and subjected to MALDI-TOF mass spectrometry for peptide identification. Degradation profile of various apelin-13 related analogues: plasma incubations (4 h) were separated on a Vydac C-8 analytical HPLC column and all peaks were collected prior to analysis by MALDI-TOF mass spectrometry. Degradation fragments, actual molecular weights (Mr) and retention times (RT) are shown. Theoretical molecular weights of each fragment are shown in brackets. […] Degradation fragments, theoretical molecular weights (Mr) and retention times (RT) are shown. Theoretical molecular weights of each fragment are shown in brackets.

[2] = test system: NIH Swiss mice fed a high-fat diet for 150 days; experiment: Acute and delayed i.p. glucose tolerance test, blood glucose and plasma insulin; assay type: in vivo; conditions: for Effect on the glucose lowering properties of (Tyr^13)apelin-13 and apelin-13-amide: administered in combination, each 25 nmol/kg
Experimental: Plasma glucose and plasma insulin concentrations were measured prior to and after i.p. administration of glucose alone (18 mmol/kg body weight), or in combination with apelin analogues (25 nmol/kg body weight) in 18 h fasted mice fed a high-fat diet for 150 days. Values represent mean±SEM for eight mice (n=8). *P<0.05, **P<0.01 and ***P<0.001 compared to glucose alone. FIG. 6 illustrates effect of i.p. administration of glucose alone (18 mmol/kg body weight), ([…])apelin-13 and ([…])apelin-13 alone or in combination (each 25 nmol/kg body weight) on (A) blood glucose and (B) plasma insulin in 18 h fasted mice fed a high-fat diet for 150 days. Values represent mean±SEM for eight mice (n=8). *p<0.05 and **p<0.01 compared to glucose alone, ^+P<0.05 compared to ([…])apelin-13, ^∇P<0.05 and ^∇∇P<0.01 compared to ([…])apelin-13. FIG. 10 illustrates tests conducted 2 h after administration of apelin related analogues (25 nmol/kg body wt) in 18 h fasted mice fed a high-fat diet for 150 days. (A) Blood glucose and (B) plasma insulin was measured before and after i.p. administration of glucose (18 mmol/kg body wt) alone or in combination with apelin analogues. Values represent mean±SEM for eight mice (n=8). *P<0.05 and **P<0.01 compared to glucose alone. FIG. 11 illustrates tests conducted 8 h after administration of apelin related analogues (25 nmol/kg body wt) in 18 h fasted mice fed a high-fat diet for 150 days. (A) Blood glucose and (B) plasma insulin was measured before and after i.p. administration of glucose (18 mmol/kg body wt) alone or in combination with apelin analogues. Values represent mean±SEM for eight mice (n=8). *P<0.05 and **P<0.01 compared to glucose alone. FIG. 12 illustrates acute effects of fatty acid modified apelin analogues on glucose-lowering and insulin release in high fat fed Swiss NIH mice with dietary-induced diabetes. (A) Blood glucose and (B) plasma insulin concentrations were measured prior to and after i.p. administration of glucose alone (18 mmol/kg body weight), or in combination with apelin analogues (25 nmol/kg body weight) in 18 h fasted mice fed a high-fat diet for 150 days. Values represent mean±SEM for eight mice (n=8). *P<0.05, compared to glucose alone. FIG. 13 illustrates tests conducted 16 h after administration of fatty acid apelin analogues (25 nmol/kg body wt) in mice fed a high-fat diet for 150 days. (A) Blood glucose and (B) plasma insulin was measured before and after i.p. administration of glucose (18 mmol/kg body wt) alone or in combination with apelin analogues. Values represent mean±SEM for eight mice (n=8). *P<0.05, **P<0.01 and ***P<0.001 compared to glucose alone. NIH Swiss mice (Harlan UK Ltd., Blackthorne, UK) were derived from a nucleus colony obtained from the National Institute of Health, Bethesda, Md., USA. One group of mice were maintained on a standard rodent diet (10% fat, 30% protein, 60% carbohydrate; percent of total energy 12.99 kJ/g, Trouw Nutrition, Cheshire, UK) and used as a model of normal glycaemia. Other NIH Swiss mice were maintained on a high fat diet (45% fat, 20% protein, 35% carbohydrate; percent of total energy 26.15 […], UK) from 8 weeks of age for 150 days to produce a model of diet induced obesity-diabetes. […] All mice were housed in an air-conditioned room maintained at 22±2° C. with a 12 h light: 12 h dark cycle (08:00-20:00 h), were singly caged, and selected for experimental groups according to body weight and non-fasted blood glucose. Drinking water and diet were freely available. All animal studies were performed in accordance with the UK Animals (Scientific Procedures) Act 1986. For acute in vivo studies, blood samples were collected from the cut tip of the tail vain of fasted, conscious mice into fluoride/heparin coated glucose microcentrifuge tubes (Sarstedt, Germany) immediately prior to (t=0) and at 15, 30, 60 and 105 min following i.p. injection of glucose ([…]).

[3] = NIH Swiss, mouse, plasma, pH 7.4
[4] = acute, alone and in combination, each 25 nmol/kg i.p. with glucose, Table 5
[5] = acute, peptide 25 nmol/kg i.p. with glucose 18 mmol/kg, Table 4
[6] = following a 2 h delay, 25 nmol/kg
[7] = following a 8 h delay, 25 nmol/kg
[8] = fatty acid derived agonists, 16 h delayed i.p. glucose tolerance test, 25 nmol/kg
[9] = fatty acid derived agonists, acute i.p. glucose tolerance test, 25 nmol/kg

Degradation fragment, Peak 1 [1]	Rank order of stability [1]	half-life at 263 µg/mL [1, 3]	remaining at 4 h, 263 µg/mL [1, 3]	Molecule	Rank order on basis of anti-hyperglycaemic efficacy ([2]; acute, Table 4)	Glucose lowering, where glucose alone = 100% [2, 4]	Insulin secretion, where glucose alone = 100% [2, 4]	Blood glucose as percent of glucose-alone control (lower = stronger glucose lowering) [2, 5]	Insulin secretion, where glucose alone = 100% [2, 5]	further results
–	13	–	39.5 ± 1.9%	CSCC[C@H](NC(=O)[C@@H]1CCCN1C(=O)CNC(=O)[C@H](CCCCN)NC(=O)[C@H](Cc1c[nH]cn1)NC(=O)[C@H](CO)NC(=O)[C@H](CC(C)C)NC(=O)[C@H](CCCNC(=N)N)NC(=O)[C@@H]1CCCN1C(=O)[C@@H](N)CCCNC(=N)N)C(=O)N1CCC[C@H]1C(=O)N[C@@H](Cc1ccccc1)C(=O)O [Apelin-12, reference compound]	–	–	–	–	–	half-life ([1]; mouse, plasma): 204 min
–	=1	> 1440 min	100%	CCCCCCCCCCCCCCCC(=O)N[C@@H](CCC(=O)NCCCC[C@H](NC(=O)[C@H](Cc1c[nH]cn1)NC(=O)[C@H](CO)NC(=O)[C@H](CC(C)C)NC(=O)[C@H](CCCNC(=N)N)NC(=O)[C@@H]1CCCN1C(=O)[C@H](CCCNC(=N)N)NC(=O)[C@@H](N)CCC(N)=O)C(=O)NCC(=O)N1CCC[C@H]1C(=O)N[C@@H](CCSC)C(=O)N1CCC[C@H]1C(=O)N[C@@H](Cc1ccc(O)cc1)C(=O)O)C(=O)O [Lys^8GluPAL(Tyr^13)apelin-13]	–	–	–	–	–	Half-life (t1/2) ([1]; NIH Swiss, mouse, plasma, 263 µg/mL, pH 7.4): >24 h; Rank order on basis of anti-hyperglycaemic efficacy ([2]; fatty acid derived agonists, 16 h delay): 3; Blood glucose as percent of glucose-alone control (lower = stronger glucose lowering) [2, 8]: 91% ^; Insulin secretion, where glucose alone = 100% [2, 8]: 126% (*); Rank order on basis of anti-hyperglycaemic efficacy ([2]; fatty acid derived agonists, acute): 3; Glucose lowering, where glucose alone = 100% [2, 9]: 93%; Insulin secretion, where glucose alone = 100% [2, 9]: 104%
(1-7)	6	666 min	74.4 ± 5.2%	CSCC[C@H](NC(=O)[C@@H]1CCCN1C(=O)CNC(=O)[C@H](CCCCN)NC(=O)[C@H](Cc1cnc[nH]1)NC(=O)[C@H](CO)NC(=O)[C@H](CC(C)C)NC(=O)[C@H](CCCNC(=N)N)NC(=O)[C@@H]1CCCN1C(=O)[C@H](CCCNC(=N)N)NC(=O)[C@@H]1CCC(=O)N1)C(=O)N1CCC[C@H]1C(=O)N[C@@H](C)C(=O)O [pGlu(Ala^13)apelin-13, pGlu (Ala^13)apelin-13]	7	–	–	110% ^	86% (*)	–
–	15	78 min	5.5 ± 0.6%	LVQPRGSRNGPGPWQGGRRKFRRQRPRLSHKGPMPF [Apelin-36, reference compound]	–	–	–	–	–	–

The remaining lines, values behind:

Molecule	Degradation fragment, Peak 1 [1]	Rank order of stability [1]	half-life at 263 µg/mL [1, 3]	remaining at 4 h, 263 µg/mL [1, 3]	Rank order on basis of anti-hyperglycaemic efficacy ([2]; acute, Table 4)	Glucose lowering, where glucose alone = 100% [2, 4]	Insulin secretion, where glucose alone = 100% [2, 4]	Blood glucose as percent of glucose-alone control (lower = stronger glucose lowering) [2, 5]	Insulin secretion, where glucose alone = 100% [2, 5]	further results
CSCC[C@H](NC(=O)[C@@H]1CCCN1C(=O)CNC(=O)[C@H](CCCCN)NC(=O)[C@H](Cc1c[nH]cn1)NC(=O)[C@H](CO)NC(=O)[C@H](CC(C)C)NC(=O)[C@H](CCCNC(=N)N)NC(=O)[C@@H]1CCCN1C(=O)[C@H](CCCNC(=N)N)NC(=O)[C@@H](N)CCC(N)=O)C(=O)N1CCC[C@H]1C(=O)N[C@@H](C)C(=O)O [(Ala^13)apelin-13, reference compound]	(Ala^13)apelin-13 (1-8)	8	618 min	70.5 ± 2.2%	9	118% (*)	74% (*)	118% (*)	74% (**)	Degradation fragment, Peak 2 [1]: (Ala^13)apelin-13 (1-11); Effect on the glucose lowering properties of (Tyr^13)apelin-13 and apelin-13-amide [2]: blocked the glucose lowering properties
CSCC[C@H](NC(=O)[C@@H]1CCCN1C(=O)CNC(=O)[C@H](CCCCN)NC(=O)[C@H](Cc1c[nH]cn1)NC(=O)[C@H](CO)NC(=O)[C@H](CC(C)C)NC(=O)[C@H](CCCNC(=N)N)NC(=O)[C@@H]1CCCN1C(=O)[C@H](CCCNC(=N)N)NC(=O)[C@@H](N)CCC(N)=O)C(=O)N1CCC[C@H]1C(=O)N[C@@H](Cc1ccc(O)cc1)C(=O)O [(Tyr^13)apelin-13]	(Tyr^13)apelin-13 (1-7)	10	510 min	76.7 ± 1.3%	4	77% (*)	131% (*)	77% (*)	131% (*)	Degradation fragment, Peak 2 [1]: (Tyr^13)apelin-13 (1-12); Rank order on basis of anti-hyperglycaemic efficacy ([2]; following a 2 h delay): 4; Blood glucose as percent of glucose-alone control (lower = stronger glucose lowering) [2, 6]: 85% ^; Insulin secretion, where glucose alone = 100% [2, 6]: 116% ^; Rank order on basis of anti-hyperglycaemic efficacy ([2]; following a 8 h delay): 4; Blood glucose as percent of glucose-alone control (lower = stronger glucose lowering) [2, 7]: 91% ^; Insulin secretion, where glucose alone = 100% [2, 7]: 104%
CSCC[C@H](NC(=O)[C@@H]1CCCN1C(=O)CNC(=O)[C@H](CCCCN)NC(=O)[C@H](Cc1c[nH]cn1)NC(=O)[C@H](CO)NC(=O)[C@H](CC(C)C)NC(=O)[C@H](CCCNC(=N)N)NC(=O)[C@@H]1CCCN1C(=O)[C@H](CCCNC(=N)N)NC(=O)[C@@H](N)CCC(N)=O)C(=O)N1CCC[C@H]1C(=O)N[C@H](C(=O)O)C(C)C [(Val^13)apelin-13]	(Val^13)apelin-13 (1-12)	11	462 min	66.5 ± 1.1%	10	124% (**)	68% (**)	124% (**)	68% (*)	Effect on the glucose lowering properties of (Tyr^13)apelin-13 and apelin-13-amide [2]: blocked the glucose lowering properties
